Reference: patent publication US10611727B2, “1-[1-(benzoyl)-pyrrolidine-2-carbonyl]-pyrrolidine-2-carbonitrile derivatives” (UNIVERSITAT DE BARCELONA, priority 2012, dated 2020)
Blank lines part the entries; values can stand above or below the compound they belong to.

Legend:
[1] = Parallel artificial membrane permeability assay (PAMPA), porcine polar brain lipid extract; assay type: in vitro ADME; conditions: 200 μM, pH 7.4, 4 hours
Description: Parallel artificial membrane permeability assay (PAMPA) described in Kansy M et al., J. Med. Chem. 1998; […]:1007-10 was used to determine the capacity of compounds to cross the Blood-Brain Barrier (BBB) by passive diffusion (Di L et al., Eur. J. Med. Chem. 2003; 38(3):223-32). The effective permeability (Pe) of the compounds was measured at an initial concentration of 200 μM. The buffer solution was prepared from a commercial concentrated one following the manufacturer's instructions. pH was adjusted to 7.4 using a 0.5 M NaOH solution. A stock solution of new compound was prepared in DMSO and diluted with buffer solution to a final 200 μM concentration (0.5% DMSO content). The PAMPA sandwich was separated and each donor well was filled with 200 μL of the compound solution. […] After 4 hours, the contents of the acceptor and donor compartments were analyzed by HPLC: 150 μL of each well from the donor plate and 150 μL of each well from the acceptor plate were transferred to HPLC vials, injecting each sample into a reverse-phase C18 column (150 mm×4.6 mm×5 μm, 100 Å) (100 μL/injection from the acceptor wells, 10 μL/injection from the donor wells and for t0 references). […]
The effective permeability (Pe) after 4 hours was calculated using equation 2 and the percentage of transport was calculated using equation 3: […]

[2] = system: MK-801-induced memory impairment; assay: Passive avoidance task, MK-801 cognition impairment model; assay type: in vivo, rodents (mice or rats); conditions: s.c. 35 min before shock session; MK-801 i.p. 15 min later; FIG. 2
Description: The new compounds were evaluated for their efficacy as cognition enhancers in a pharmacological model for cognitive impairment. The effects of the new compounds were evaluated in untreated and MK-801-treated rodents (mice or rats). MK-801 is a non-competitive antagonist of the N-Methyl-D-aspartate (NMDA) receptor which impairs animal performance in various learning and memory paradigms (Castellano C et al., Curr. Drug Targets 2001; 2:273-83; Riedel G et al., Behav. Brain Res. 2003; 140:1-47). MK-801 also produces various effects on rodent behavior, including deficits in sensory processing, hypermotility, stereotypy and ataxia. […]
For the evaluation of the passive avoidance task, a two-compartment box with a light compartment and a dark compartment of the same dimensions was used. […] In the evaluation session, the time which the animal takes to enter the dark compartment (in seconds) was measured, as a sign of memory retention of the shock received in the dark compartment during the previous session. […] The corresponding evaluated compound was injected s.c. 35 min before the shock session, followed 15 minutes later by i.p. injection of MK-801, or PBS in the case of the control, in the same doses and volume as described for the object recognition test.

[3] = biological target: human prolyl oligopeptidase (Homo sapiens (Human), UniProt P48147); assay: POP inhibition assay (Z-G-P-AMC substrate, fluorimetric); assay type: biochemical; conditions: 100 mM Na/K phosphate buffer pH 8.0, hPOP 20 to 60 nM
Description: hPOP expression: E. coli BL21 competent cells were transformed with pETM10 hPOP. To induce expression, a pre-culture of LB medium (50 mL) containing kanamycin (50 μg/mL) was inoculated with one colony and was grown overnight at 37° C., Next day, two cultures of LB medium (500 ml) were inoculated with the overnight culture (10 mL). The inoculated cultures were grown at 37° C. and 220 rpm until the OD595 was 1.2 (2.5-3 hours). […] The column was washed with suspension buffer until the absorbance at 280 nm returned to basal level. […] POP activity was checked in all fractions and positive ones were analyzed by SDS-PAGE and stained with Biosafe Comassie Stain G-250. […] Recombinant hPOP was quantified with the Bio-Rad Protein Assay with BSA as standard, Aliquots of the recombinant enzyme were prepared and immediately frozen with liquid nitrogen and stored at −80° C.
POP activity was determined following the method described by Toide et al (Toide K et al., J. Pharmacol. Exp. Ther. 1995; 274:1370-8), using Z-G-P-AMC (N-benzyloxycarbonyl-Gly-Pro-methylcoumarinyl-7-amide) as POP substrate. […]
After preincubation, Z-G-P-AMC (10 μl, 3 mM in 40% 1,4-dioxane) was added (3 μL 1.5 mM in 40% of 1,4-dioxane, in Conditions B), and the reaction was incubated for 1 hour at 37° C. The reaction was stopped by adding sodium acetate (150 μl, 1 M, pH 4) and the formation of AMC was measured fluorimetrically. […]

Chain of human prolyl oligopeptidase (P48147 whole entry): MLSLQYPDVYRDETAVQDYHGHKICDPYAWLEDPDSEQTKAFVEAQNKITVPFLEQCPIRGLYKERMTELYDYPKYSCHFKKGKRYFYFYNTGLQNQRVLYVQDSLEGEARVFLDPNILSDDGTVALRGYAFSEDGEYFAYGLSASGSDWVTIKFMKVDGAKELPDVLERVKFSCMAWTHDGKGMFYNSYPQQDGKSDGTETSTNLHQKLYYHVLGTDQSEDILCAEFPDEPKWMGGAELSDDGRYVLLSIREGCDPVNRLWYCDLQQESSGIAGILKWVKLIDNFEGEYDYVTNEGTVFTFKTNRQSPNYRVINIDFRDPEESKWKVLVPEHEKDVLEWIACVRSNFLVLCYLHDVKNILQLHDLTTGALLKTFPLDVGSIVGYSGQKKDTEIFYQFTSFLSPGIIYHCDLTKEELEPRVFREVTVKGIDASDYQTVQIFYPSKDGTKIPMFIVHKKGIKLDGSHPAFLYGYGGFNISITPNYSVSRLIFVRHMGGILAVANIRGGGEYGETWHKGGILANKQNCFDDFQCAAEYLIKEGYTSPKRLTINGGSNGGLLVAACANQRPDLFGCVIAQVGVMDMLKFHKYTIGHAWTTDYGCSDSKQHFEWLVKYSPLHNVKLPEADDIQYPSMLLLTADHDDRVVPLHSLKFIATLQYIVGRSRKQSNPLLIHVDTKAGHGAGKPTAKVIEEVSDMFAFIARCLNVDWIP

- % T (percentage of transport) [1]: 4.3%
SMILES: COc1cc(C(=O)N2C[C@H](OC)C[C@H]2C(=O)N2CCC[C@H]2C#N)cc(OC)c1OCc1ccccc1 [Example 1, (S)-1-((2S,4R)-1-(4-(benzyloxy)-3,5-dimethoxybenzoyl)-4-methoxypyrrolidine-2-carbonyl)pyrrolidine-2-carbonitrile]

SMILES: COc1cc(C(=O)N2CC(F)(F)C[C@H]2C(=O)N2CCC[C@H]2C#N)cc(OC)c1OCc1ccccc1 [Example 4, (S)-1-((2S)-1-(4-(benzyloxy)-3,5-dimethoxybenzoyl)-4,4-difluoropyrrolidine-2-carbonyl)pyrrolidine-2-carbonitrile]
- Reversal of MK-801-induced memory impairment in the passive avoidance test [2]: able to reverse MK-801-induced memory Impairment

- IC50 [3]: 336 nM
SMILES: COc1cc(C(=O)N2CC(F)(F)C[C@H]2C(=O)N2CCC[C@H]2C#N)cc(OCc2ccccc2)c1OCc1ccccc1 [Example 13, (S)-1-((2S)-1-(3,4-dibenzyloxy-5-methoxybenzoyl)-4,4-difluoropyrrolidine-2-carbonyl)pyrrolidine-2-carbonitrile]
